These results are taken from patent publication US20200237871A1, “METHODS FOR MITIGATING LIVER INJURY AND PROMOTING LIVER HYPERTROPHY, REGENERATION AND CELL ENGRAFTMENT IN CONJUNCTION WITH RADIATION AND/OR RADIOMIMETIC TREATMENTS” (Janssen Pharmaceutica NV, priority 2019, published 2020).

Experiment [1] deals with Hemophilia A mice. Briefly: Drabkin's tail bleeding assay (Example 6). In kind it is in vivo, mouse. The source says:
8-16-week-old male C57/BL6 mice, 8-16-week-old female and male B6129SF2/J mice (donor for isolating LSECs) and 8-16-week-old female and male Hemophilia mice (F^8tm1Kaz) mice were used in this study. Mice were housed in groups of up to 5 in micro-isolator cages on stainless steel racks (Allentown, Inc., Allentown, N.J.) with a total floor space of 500 cm^2. The cages utilized an external water bottle and a dual feeder rack (Fisher Scientific, Hampton, N.H.). These cages were stored in the storage rack which provided temperature, humidity, and ventilation control to each individual cage (Allentown, Inc.). Bed-o'Cobs ⅛″ (Fisher Scientific) were used as bedding material in each cage.
The methods were identical to Experiment 5 as described above; including the preparation of test articles (solutions of RWJ-800088 and AdHGF), isolation and transplant of LSECs, and Hepatic irradiation.
The livers of mice were irradiated at 50 Gy by using an X-ray irradiator (SARRP). At 24 hours post-irradiation, the LSECs (1×10^6 cells/mouse) were injected to the mouse through tail vein. […]
A tail bleeding test was performed in which the extent of bleeding and time to clotting over the course of 30 minutes was evaluated. FVIII protein levels were evaluated by Western blot and mRNA profiling in the blood and liver to evaluate the extent to which there was engraftment of functioning LSECs that produce FVIII. […]

The test system of experiment [2] is DPPIV−/− knockout mice. Nature of the experiment: LSEC engraftment/repopulation of irradiated liver by DPPIV staining (Examples 2 and 3). In kind it is in vivo, mouse. As for the experimental part:
8-12-week-old male and female Di-peptyl peptidase IV (DPPIV) −/− knockout mice and 8-12-week-old male and female C57Bl6 mice were used in this study. Animals were weighed in the beginning of the experiment and before tissue collection. All animals were housed in the Institute for Animal Studies at Albert Einstein College of medicine and fed regular rodent chow. All experiments were performed to according to protocols approved by Institutional Animal Care and Use Committee at Albert Einstein College of Medicine. Animals were made cirrhotic using CCl4 administration (intraperitoneal [IP] injections twice a week for at least 11 weeks).
Image-guided external beam irradiation was performed using a small animal radiation research platform (SARRP, Xstrahl Inc., Suwanee, Ga.). Mice were given gastrografin contrast through gavage to improve visualization of the gastrointestinal (GI) tract. After approximately 2 minutes, mice were positioned on a tubular couch and anesthetized with ˜2% Isofluorane (Isothesia, USP) in 2 L/min pure oxygen. A cone-beam computed tomography (CBCT) scan was acquired and a treatment plan irradiating the median lobe and right lobe was generated using the MuriPlan software. […] Within the targeted lobes, the position of the isocenter was chosen to minimize irradiation of the GI tract, spine, and heart (the maximum dose to these organs was kept below 10 Gy). Targets were irradiated with 50 Gy X-rays at 220 kVp energy and 13 mA tube current (dose rate of 2.4-2.5 Gy/min) using a 1 mm copper filter for beam hardening.
TPOm was diluted in sterile PBS to a 10 mg/ml stock. The stock was stored at −20° C. and allowed to come to room temperature prior to administration. TPOm was administered as a single dose (300 μg/kg) via subcutaneous injection 10 minutes after the transplant procedure.
DPPIV was selected as a marker for engraftment of exogenous LSECs in the DPPIV (−/−) animals. […] Slide imaging was done using a Perkin Elmer P250 High Capacity Slide Scanner.
LSECs were isolated from the single-cell suspension using CD146 microbeads (Miltenyi Biotec GmbH #130-092-007).
Following isolation of LSECs, 500×10^5 LSECs are transplanted via intrasplenic injection into healthy adult mice anesthetized with Isoflurane (Isothesia, USP) 24 hrs post HIR. Buprenorphine is given post-op as an analgesic.
To test the efficacy of TPOm as an agent that can cause LSEC engraftment, DPPIV−/− knockout mice received 50GY hepatic irradiation (HIR) to the median and right lobes of the liver using external-beam CT-guided x-ray irradiation, and LSECs that express DPPIV (FIG. 2A).
The methods were identical to those described above with the exception that the LSEC transplant was administered 4-5 days post irradiation and the TPOm or Romiplostim were administered approximately 10 minutes post LSEC transplant.

Turning to “methoxypolyethyleneglycol20000-propionyl-L-Isoleucyl-L-Glutamyl-Glycyl-L-Prolyl-L-Threonyl-L-Leucyl-L-Arginyl-L-Glutaminyl-L-2-Naphthylalanyl-L-Leucyl-L-Alanyl-L-Alanyl-L-Arginyl-Sarcosyl-Ne-(methoxypolyethyleneglycol20000-propionyl-L-Isoleucyl-L-Glutamyl-Glycyl-L-Prolyl-L-Threonyl-L-Leucyl-L-Arginyl-L-Glutaminyl-L-2-Naphthyl alanyl-L-Leucyl-L-Alanyl-L-Alanyl-L-Arginyl-Sarcosyl-)-Lysinamide [RWJ-800088]”, the “haemoglobin loss (haemoglobin concentration in the collection tube) compared to FVIII deficient model” value in experiment [1] (HIR 50 Gy + LSECs + drug) is recorded as “significant decrease”. Moreover, the “bleeding and clotting time in functional bleeding assay” value in experiment [1] (HIR + LSEC transplantation + RWJ-800088) was “reduced bleeding and clotting time similar to non-Hemophilia A controls”. In addition, the “repopulation of irradiated liver by transplanted DPPIV(+/+) LSECs (DPPIV staining)” value in experiment [2] (50GY HIR + LSEC transplant 24 hrs post HIR, growth stimulus given after transplant, listed as TPOm) is listed as “massive LSEC repopulation”. Besides, in experiment [2] (LSEC+TPOm+HIR), the “animals with some level of hepatic repopulation” value was 6/7. For the same substance, the “Engraftment when LSEC transplant is administered 24 hours post irradiation” value in experiment [2] (targeted liver irradiation (50 Gy)) is listed as “Yes”. For the same substance, in experiment [2] (targeted liver irradiation (50 Gy), drug approximately 10 minutes post LSEC transplant), the “Engraftment when LSEC transplant is administered 4-5 days post irradiation” value was “Yes”.
